According to paper PMC9792776 (Frontiers in Pharmacology, 2022):
Like-named read-outs stand apart in the source and are kept apart here.

Experiments:
OATP1B1 = biological target: T1, OATP1B1 (Homo sapiens, UniProt Q9Y6L6); assay: Transporter substrate/inhibitor assessment, OATP1B1; type: in vitro ADME
T1 sequence (Q9Y6L6 1-691): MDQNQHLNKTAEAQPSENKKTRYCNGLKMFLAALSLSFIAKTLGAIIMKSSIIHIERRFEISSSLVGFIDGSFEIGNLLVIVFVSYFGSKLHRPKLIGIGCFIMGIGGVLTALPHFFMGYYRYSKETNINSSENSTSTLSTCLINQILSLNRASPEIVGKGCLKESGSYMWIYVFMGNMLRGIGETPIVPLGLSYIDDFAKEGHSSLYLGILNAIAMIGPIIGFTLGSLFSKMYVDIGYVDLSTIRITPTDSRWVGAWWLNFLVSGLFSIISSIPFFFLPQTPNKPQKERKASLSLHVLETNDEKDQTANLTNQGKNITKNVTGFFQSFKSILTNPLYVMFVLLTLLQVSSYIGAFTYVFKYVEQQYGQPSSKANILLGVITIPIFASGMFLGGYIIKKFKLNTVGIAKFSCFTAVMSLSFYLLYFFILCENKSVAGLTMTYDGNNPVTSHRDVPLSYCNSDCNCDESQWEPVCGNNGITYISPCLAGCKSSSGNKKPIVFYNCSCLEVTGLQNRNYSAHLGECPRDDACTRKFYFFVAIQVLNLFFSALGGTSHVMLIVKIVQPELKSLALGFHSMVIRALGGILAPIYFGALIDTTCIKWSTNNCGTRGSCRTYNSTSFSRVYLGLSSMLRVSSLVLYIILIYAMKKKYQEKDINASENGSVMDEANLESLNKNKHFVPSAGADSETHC

CYP2C19 = CYP2C19 (Homo sapiens, UniProt P33261); assay: CYP2C19 inhibition in human liver microsomes
Chain of CYP2C19 (P33261 whole entry): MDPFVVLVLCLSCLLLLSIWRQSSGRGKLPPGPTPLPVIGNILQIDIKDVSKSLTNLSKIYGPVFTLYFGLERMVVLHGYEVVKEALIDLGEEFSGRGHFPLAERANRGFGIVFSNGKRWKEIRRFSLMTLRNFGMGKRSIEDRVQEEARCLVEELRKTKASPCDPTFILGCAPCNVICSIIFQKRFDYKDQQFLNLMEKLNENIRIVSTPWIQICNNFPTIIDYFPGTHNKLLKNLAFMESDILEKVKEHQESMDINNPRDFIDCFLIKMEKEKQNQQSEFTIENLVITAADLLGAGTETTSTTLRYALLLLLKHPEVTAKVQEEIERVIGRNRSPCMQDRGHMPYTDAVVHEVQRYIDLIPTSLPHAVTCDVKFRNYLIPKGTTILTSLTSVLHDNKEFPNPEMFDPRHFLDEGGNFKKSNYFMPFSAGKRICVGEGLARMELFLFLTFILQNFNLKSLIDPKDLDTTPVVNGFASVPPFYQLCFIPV
Method: Ki=IC50/1+S/Km (1) Where IC50 signifies the half-maximum inhibitory concentration; S, the concentration of P450 marker substrate; and K m , the Michaelis constant within the Michaelis-Menten equation, which is in turn used to characterize substrate-enzyme binding kinetics.
The Michaelis constant (K m ) of CYP2C9 incubated with diclofenac was obtained from reported data ([Lee et al., 2014]). Methods used to calculate the Ki of CYP2C19 and CYP2C9 were similar.

CYP2B6 = CYP2B6 mRNA induction in cultured human hepatocytes; type: cell-based; conditions: for EC50: human, cultured human hepatocytes
[1] = PBPK model parameters optimized or assumed (Simcyp minimal PBPK); set-up: species or system human
Text: The first-order absorption model has different absorption rate constants (ka) and fraction available from dosage form (fa) to simulate absorption processes in fasting and fed states. […] Caco-2 (human colorectal adenocarcinoma) cells are used to model the intestinal epithelial barrier. The Simcyp (Version 19.0, Certara Inc., Sheffield, UK) minimal PBPK, which treats all organs other than the intestine and liver as a single compartment ([Rowland Yeo et al., 2010]), was selected, along with a single adjusting compartment (SAC) distribution model. The SAC is a nonphysiologic compartment that permits adjustment to the drug concentration profile in the systemic compartment ([Ke et al., 2016]).

OAT3 = biological target: T2, OAT3 (Homo sapiens, UniProt Q8TCC7); assay: Transporter substrate/inhibitor assessment, OAT3; type: in vitro ADME
T2 sequence (Q8TCC7 1-542): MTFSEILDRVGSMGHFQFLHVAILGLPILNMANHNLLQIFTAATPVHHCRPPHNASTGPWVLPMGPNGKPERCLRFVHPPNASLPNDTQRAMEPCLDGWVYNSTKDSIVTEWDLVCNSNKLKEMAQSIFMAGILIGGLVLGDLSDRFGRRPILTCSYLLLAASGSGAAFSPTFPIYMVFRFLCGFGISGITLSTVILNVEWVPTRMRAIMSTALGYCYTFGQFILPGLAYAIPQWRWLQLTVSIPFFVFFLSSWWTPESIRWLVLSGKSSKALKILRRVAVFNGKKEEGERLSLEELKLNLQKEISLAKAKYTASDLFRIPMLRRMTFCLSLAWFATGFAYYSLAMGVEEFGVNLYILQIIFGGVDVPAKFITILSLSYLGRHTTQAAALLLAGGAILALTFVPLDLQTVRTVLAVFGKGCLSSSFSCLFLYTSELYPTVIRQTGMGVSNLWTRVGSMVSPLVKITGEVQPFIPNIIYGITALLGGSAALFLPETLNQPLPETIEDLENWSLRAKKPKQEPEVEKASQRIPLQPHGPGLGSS

OAT1 = biological target: T3, OAT1 (Homo sapiens, UniProt Q4U2R8); assay: Transporter substrate/inhibitor assessment, OAT1; type: in vitro ADME
T3 sequence (Q4U2R8 1-563): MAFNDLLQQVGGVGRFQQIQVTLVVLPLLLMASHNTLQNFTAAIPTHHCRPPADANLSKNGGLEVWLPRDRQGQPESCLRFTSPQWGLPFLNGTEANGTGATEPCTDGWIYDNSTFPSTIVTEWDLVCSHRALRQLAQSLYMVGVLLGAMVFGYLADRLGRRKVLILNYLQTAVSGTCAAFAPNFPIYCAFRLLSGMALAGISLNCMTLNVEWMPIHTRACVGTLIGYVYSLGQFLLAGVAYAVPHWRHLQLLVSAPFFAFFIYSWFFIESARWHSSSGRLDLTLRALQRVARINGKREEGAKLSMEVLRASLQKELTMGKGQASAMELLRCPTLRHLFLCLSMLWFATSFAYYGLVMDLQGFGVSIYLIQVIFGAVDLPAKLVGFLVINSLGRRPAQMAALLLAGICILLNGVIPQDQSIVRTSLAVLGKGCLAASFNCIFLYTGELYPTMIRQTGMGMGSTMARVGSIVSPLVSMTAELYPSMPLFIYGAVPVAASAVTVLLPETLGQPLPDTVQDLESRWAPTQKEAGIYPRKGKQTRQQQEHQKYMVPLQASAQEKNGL

[2] = tested on: imatinib-resistant and imatinib-sensitive gastrointestinal stromal tumor cell lines; set-up: method as in Liu et al., 2019; conditions: imatinib-resistant and imatinib-sensitive GIST cell lines; ref Liu et al., 2019; cited from earlier work
[3] = Fasting, optimized based on observed data
[4] = Fed, optimized based on observed data
[5] = optimized based on observed data

## Cc1ccc(C(=O)Nc2ccc(CN3CCN(C)CC3)c(C(F)(F)F)c2)cc1C#Cc1cnc2[nH]ncc2c1 [olverembatinib, Olverembatinib]
OATP1B1
  substrate or inhibitor of OATP1B1: neither a substrate nor inhibitor
CYP2C19
  Ki: 1920 nM
CYP2C19; microsomes
  CYP2C19 inhibition, strength: weak
CYP2B6; CYP2B6 mRNA, lot AIH, read-out: EC50
  EC50: 828 nM
CYP2B6; CYP2B6 mRNA, lot HUM182851, read-out: EC50
  EC50: 290 nM
CYP2B6; human hepatocytes, mRNA, mean of two lots, read-out: IndC50 CYP2B6 (Mean EC50)
  EC50: 559 nM
CYP2B6; in vitro studies
  CYP2B6 induction, strength: weak
[1]; [3]
  fa: 0.574 (Fasting)
  ka: 0.213 (Fasting) 1/h
[1]; [4]
  fa: 0.8 (Fed)
  ka: 0.136 (Fed) 1/h
[1]; human, microsomal incubation, assumed equal to fu,p, read-out: fu,mic/fu,inc
  fraction unbound: 0.0005
[1]; human, optimized based on observed data, read-out: Kp Scalar
  Kp: 6.01
[1]; optimized based on fmCYP2C9
  ISEF CYP2C9: 1.2938
[1]; optimized based on fmCYP3A4
  ISEF CYP3A4: 0.7761
[1]; [5]
  SAC kin: 0.0471 h⁻¹
  SAC kout: 0.0177 h⁻¹
  Vsac: 38.02 L/kg
OAT3
  substrate or inhibitor of OAT3: neither a substrate nor inhibitor
OAT1
  substrate or inhibitor of OAT1: neither a substrate nor inhibitor
[2]
  antiproliferative activity compared with ponatinib: equivalent or more potent antiproliferative activity
